These results are taken from EP4692071A1, “PHOTOCHROMIC COMPOUND, NAPHTHOL DERIVATIVE, CURABLE COMPOSITION, OPTICAL ARTICLE, LENS, AND EYEGLASS” (TOKUYAMA CORPORATION, priority 2023, dated 2024).

Molecules are shown by their SMILES. Several values for one entry are separate records, joined by “and”; a condition that tells them apart may be missing. Equal entries are not always repeated.

What all share (format): physicochemical
Data set [1] can be described thus: Maximum absorption wavelength (λmax) after color development, spectrophotometer MCPD3000. Particulars: after color development. As to the method: (§1) • [1] Maximum Absorption Wavelength (λmax): The maximum absorption wavelength after color development, measured using a spectrophotometer (instantaneous multichannel photodetector MCPD3000) manufactured by Otsuka Electronics Co., Ltd. was used as an indicator for the color tone during the color development. • [2] 23°C Color Optical Density (A23): A difference between an absorbancy measured after light irradiation at 23°C for 240 seconds {ε(240)} and an absorbancy without light irradiation ε(0) at the maximum absorption wavelength was used as an indicator for the color optical density. […] 35°C Color Optical Density (A35): A difference between an absorbancy measured after light irradiation at 35°C for 240 seconds {ε(240)} and an absorbancy without light irradiation ε(0) at the first and second absorption wavelengths was used as an indicator for the color optical density. […] 23°C color fading half-life [τ1/2 (sec.)]: A time required for the absorbancy of the sample at the maximum absorption wavelength to decrease to 1/2 of {ε(240)-ε(0)} when the light irradiation is terminated after the light irradiation at 23°C for 240 seconds, was used as an indicator for the color fading speed. The shorter this time, the higher the color fading speed. • [6] Residual rate (A90/A0×100): The obtained photochromic plastic lens was subjected to accelerated deterioration using a xenon weather meter X25 manufactured by Suga Test Instruments Co., Ltd. for 90 hours. Subsequently, the color optical density was evaluated before and after the test, then a color optical density before the test (A0) and a color optical density after the test (A90) were measured, and a ratio (A90/A0) was defined as a residual rate. The residual rate was used as an indicator for a color developing durability. The higher the residual rate, the higher the color developing durability.

Data set [2] can be described thus: High-temperature color development rate (A35/A23×100), temperature dependency. As to the method:
as §1

Data set [3] is described as follows: Residual rate (A90/A0×100) after 90 h accelerated deterioration in xenon weather meter X25, color developing durability. The conditions noted are these: after 90 h accelerated deterioration. As to the method: as §1
[4] abbreviates: photochromic cured product, thickness 1 mm (kneading method).
The mark [5] stands for this setting: photochromic laminate prepared by coating method.

Consider `COCCCC1(CCCOC)c2ccccc2-c2c1c1c(c3cc(OC)c(N4CC(C)c5ccccc54)cc23)OC(c2ccc(OC)cc2)(c2ccc(OC)cc2)C=C1` (stereo not drawn) [Formula (39A)], for which the results for the Maximum absorption wavelength in data set [1] (binder sheet (binder method)), in data set [1] (setting [4]) and in data set [1] (setting [5]) were 533 nm, 537 nm and 533 nm, respectively. Besides, the “A35/A23 *100” value in data set [2] (binder sheet (binder method)) is on record as 75%; in data set [2] (setting [4]), 76%; in data set [2] (setting [5]) it was 75%. Besides, the values for the Residual rate in data set [3] (binder sheet (binder method)), in data set [3] (setting [4]) and in data set [3] (setting [5]) were 85%, 76% and 71%, respectively.
Regarding `CCCC1(C)c2cc(Oc3ccccc3)ccc2-c2c1c1c(c3cc(OC)c(N4CCc5ccccc54)cc23)OC(c2ccc(OC)cc2)(c2ccc3c(c2)CCO3)C=C1` (stereo not drawn) [Formula (70A)], the Maximum absorption wavelength is given as 535 nm in data set [1] (binder sheet (binder method)), 540 nm in data set [1] (setting [4]) and 536 nm in data set [1] (setting [5]). In addition, the “A35/A23 *100” value is given as 77% in data set [2] (binder sheet (binder method)), 78% in data set [2] (setting [4]) and 77% in data set [2] (setting [5]). The Residual rate came out at 82% in data set [3] (binder sheet (binder method)), 77% in data set [3] (setting [4]) and 71% in data set [3] (setting [5]).
As for `CCCOc1ccc(C2(c3ccc(OCCC)cc3)C=Cc3c4c(c5cc(N6CCc7cc(C(F)(F)F)ccc76)c(OC)cc5c3O2)-c2ccccc2C4(CCC)CCC)cc1` [Formula (54A)], the Maximum absorption wavelength in data set [1] (setting [5]) is 592 nm and 486 nm. Besides, the “A35/A23 *100” value in data set [2] (setting [5]) is 66% and 67%. Also, in data set [3] (setting [5]), the Residual rate stood at 69%.
On to `CCCOc1ccc(C2(c3ccc(OCCC)cc3)C=Cc3c4c(c5cc(N6CCc7ccccc76)c(OC)cc5c3O2)-c2ccc(-c3ccc(C)cc3)cc2C42CCCCCCC2)cc1` [Formula (35A)], for which the Maximum absorption wavelength in data set [1] (binder sheet (binder method)) worked out at 531 nm; in data set [1] (setting [4]), 535 nm; in data set [1] (setting [5]), 531 nm. Also, the “A35/A23 *100” value in data set [2] (binder sheet (binder method)) was 78%; in data set [2] (setting [4]) it was 80%; in data set [2] (setting [5]), 78%. The Residual rate was 90% in data set [3] (binder sheet (binder method)), 80% in data set [3] (setting [4]) and 75% in data set [3] (setting [5]).
Regarding `CCC1(CC)CCC2(CC1)c1cc(OC(F)(F)F)ccc1-c1c2c2c(c3cc(OC)c(N4CCc5ccccc54)cc13)OC(c1ccc(OC)cc1)(c1ccc(OCCCO[Si](C)(C)CC[Si](O[Si](C)(C)C)(O[Si](C)(C)C)O[Si](C)(C)C)cc1)C=C2` (stereo not drawn) [Formula (74A)], the Maximum absorption wavelength in data set [1] (binder sheet (binder method)) was 522 nm; in data set [1] (setting [4]), 526 nm; in data set [1] (setting [5]), 522 nm. The “A35/A23 *100” value amounted to 64% in data set [2] (binder sheet (binder method)), 65% in data set [2] (setting [4]) and 64% in data set [2] (setting [5]). In addition, the Residual rate in data set [3] (binder sheet (binder method)) was 83%; in data set [3] (setting [4]), 77%; in data set [3] (setting [5]), 72%.
As for `CCCCCCOc1ccc(C2(c3ccc(OCCCCCC)cc3)C=Cc3c4c(c5cc(N6CCc7cc(OC)ccc76)c(OC)cc5c3O2)-c2ccc(-c3ccc(C(F)(F)F)cc3)cc2C42CC(C)(C)CC(C)(C)C2)cc1` [Formula (48A)], the Maximum absorption wavelength in data set [1] (binder sheet (binder method)) and in data set [1] (setting [5]) was 539 nm each time. The “A35/A23 *100” value in data set [2] (binder sheet (binder method)) and in data set [2] (setting [5]) was 62% throughout. The Residual rate amounted to 84% in data set [3] (binder sheet (binder method)) and 69% in data set [3] (setting [5]).
With `COc1ccc(C2(c3ccc(OC)cc3)C=Cc3c4c(c5cc(N6CCc7cc(C)ccc76)c(OC)cc5c3O2)-c2ccccc2C4(C)C)cc1` [Formula (52A)], the Maximum absorption wavelength in data set [1] (binder sheet (binder method)) is on record as 535 nm; in data set [1] (setting [4]) it was 539 nm; in data set [1] (setting [5]), 535 nm. Further, the “A35/A23 *100” value is on record as 75% in data set [2] (binder sheet (binder method)), 76% in data set [2] (setting [4]) and 75% in data set [2] (setting [5]). The figures for the Residual rate in data set [3] (binder sheet (binder method)), in data set [3] (setting [4]) and in data set [3] (setting [5]) were 92%, 82% and 76%, respectively.
`COc1ccc(C2(c3ccc(OC)c(OC)c3)C=Cc3c4c(c5cc(N6CCc7ccccc76)c(OC)cc5c3O2)-c2ccccc2C4(CCC(F)(F)F)CCC(F)(F)F)cc1` (stereo not drawn) [Formula (67A)]: the Maximum absorption wavelength in data set [1] (binder sheet (binder method)) is recorded as 527 nm; in data set [1] (setting [4]) it was 531 nm; in data set [1] (setting [5]) it was 527 nm. The “A35/A23 *100” value came to 66% in data set [2] (binder sheet (binder method)), 67% in data set [2] (setting [4]) and 66% in data set [2] (setting [5]). For the same molecule, the Residual rate in data set [3] (binder sheet (binder method)) is on record as 83%; in data set [3] (setting [4]), 75%; in data set [3] (setting [5]), 73%.
`CCCOc1ccc(C2(c3ccc(OC)cc3)C=Cc3c4c(c5cc(N6CCc7ccccc76)c(C)cc5c3O2)-c2ccc(-c3ccc(F)c(F)c3F)cc2C4(CCCCOC)CCCCOC)cc1F` (stereo not drawn) [Formula (78A)]: the Maximum absorption wavelength in data set [1] (binder sheet (binder method)) is given as 523 nm; in data set [1] (setting [5]), 524 nm. The “A35/A23 *100” value in data set [2] (binder sheet (binder method)) and in data set [2] (setting [5]) was 68% in each case. The figures for the Residual rate in data set [3] (binder sheet (binder method)) and in data set [3] (setting [5]) were 82% and 64%, respectively.
On to `CCC1(CC)c2cc(C)ccc2-c2c1c1c(c3cc(C)c(N4CCc5ccccc54)cc23)OC(c2ccc(C)cc2)(c2ccc(OC)cc2)C=C1` (stereo not drawn) [Formula (42A)], for which the Maximum absorption wavelength in data set [1] (binder sheet (binder method)) was 535 nm; in data set [1] (setting [4]), 539 nm; in data set [1] (setting [5]) it was 535 nm. Besides, the “A35/A23 *100” value is given as 75% in data set [2] (binder sheet (binder method)), 76% in data set [2] (setting [4]) and 75% in data set [2] (setting [5]). The figures for the Residual rate in data set [3] (binder sheet (binder method)), in data set [3] (setting [4]) and in data set [3] (setting [5]) were 85%, 75% and 70%, respectively.
With `CCC1(CC)CCC2(CC1)c1cc(-c3ccccc3)ccc1-c1c2c2c(c3cc(OC)c(N4CCc5ccccc54)cc13)OC(c1ccc(C)cc1)(c1ccc(N(C)c3ccccc3)cc1)C=C2` (stereo not drawn) [Formula (60A)], the Maximum absorption wavelength in data set [1] (setting [5]) was 535 nm and 595 nm. In data set [2] (setting [5]), the “A35/A23 *100” value was 71%. In data set [3] (setting [5]), the Residual rate was determined as 69%.
For the molecule `COCCOCCOCCC1(CCOCCOCCOC)c2ccccc2-c2c1c1c(c3cc(OC)c(N4CCc5cc(F)ccc54)cc23)OC(c2ccc(OC)cc2)(c2ccc(OC)cc2)C=C1` [Formula (50A)], the Maximum absorption wavelength in data set [1] (binder sheet (binder method)) is given as 522 nm; in data set [1] (setting [4]), 526 nm; in data set [1] (setting [5]) it was 522 nm. Also, the “A35/A23 *100” value in data set [2] (binder sheet (binder method)) was found to be 70%; in data set [2] (setting [4]), 71%; in data set [2] (setting [5]), 70%. For the same molecule, the Residual rate is 84% in data set [3] (binder sheet (binder method)), 76% in data set [3] (setting [4]) and 70% in data set [3] (setting [5]).
With `COc1ccc(C2(c3ccc(OC)cc3)C=Cc3c4c(c5cc(N6CCc7ccccc76)c(-c6ccc(OC)cc6OC)cc5c3O2)-c2ccccc2C4(C)C)cc1` [Formula (I), reference compound], the Maximum absorption wavelength is 522 nm in data set [1] (binder sheet (binder method)), 526 nm in data set [1] (setting [4]) and 522 nm in data set [1] (setting [5]). For the same molecule, the “A35/A23 *100” value is reported as 72% in data set [2] (binder sheet (binder method)), 73% in data set [2] (setting [4]) and 71% in data set [2] (setting [5]). Also, the Residual rate in data set [3] (binder sheet (binder method)) amounted to 84%; in data set [3] (setting [4]), 74%; in data set [3] (setting [5]), 71%.
Consider `COc1ccc(C2(c3ccc(N(c4ccccc4)c4ccccc4)cc3)C=Cc3c4c(c5cc(N6CCc7ccccc76)c(OC)cc5c3O2)-c2ccccc2C42CCC3(CCCCC3)CC2)cc1` (stereo not drawn) [Formula (57A)], for which the Maximum absorption wavelength in data set [1] (binder sheet (binder method)) and in data set [1] (setting [5]) was 548 nm each time. Besides, the “A35/A23 *100” value in data set [2] (binder sheet (binder method)) and in data set [2] (setting [5]) was 70% in each case. Further, the Residual rate in data set [3] (binder sheet (binder method)) is 80%; in data set [3] (setting [5]), 65%.
For the molecule `COc1ccc(C2(c3ccc(OC)cc3)C=Cc3c4c(c5cc(N6CCc7ccccc76)c(OC)cc5c3O2)-c2ccccc2C4(C)C)cc1` [Formula (28A)], the Maximum absorption wavelength turned out to be 532 nm in data set [1] (binder sheet (binder method)), 536 nm in data set [1] (setting [4]) and 532 nm in data set [1] (setting [5]). Also, the results for the “A35/A23 *100” value in data set [2] (binder sheet (binder method)), in data set [2] (setting [4]) and in data set [2] (setting [5]) were 74%, 75% and 74%, respectively. The values for the Residual rate in data set [3] (binder sheet (binder method)), in data set [3] (setting [4]) and in data set [3] (setting [5]) were 88%, 79% and 74%, respectively.
Consider `COc1ccc(C2(c3ccc(N4CCOCC4)cc3)C=Cc3c4c(c5cc(N6CCc7ccccc76)c(C)cc5c3O2)-c2ccc(OC)cc2C4(CCCC(F)(F)F)CCCC(F)(F)F)cc1` (stereo not drawn) [Formula (45A)], for which the Maximum absorption wavelength in data set [1] (setting [5]) was 489 nm and 596 nm. Also, in data set [2] (setting [5]), the “A35/A23 *100” value is 67%. Moreover, in data set [3] (setting [5]), the Residual rate turned out to be 65%.
